According to ChEMBL document CHEMBL3507680, “University of Dundee, Gates Library screen for HepG2 cell viability”:

Test: Human HepG2 cell viability assay in 384 well format
Format: toxicity, cell-based
Design: dose 125 nL, time 70.5 hour; cytotoxicity at 70.5 h: concentration not given beside the values
Conditions: HepG2 cells, read-out: Inhibition

SMILES	cytotoxicity at 70.5 h [%]
CS(=O)(=O)CCC(=O)N1CCC(c2cccc(F)c2)C1 (centres undefined)	5.28
CSc1ccc(NCC(=O)NC(=O)NCC(F)(F)F)cc1F	19.5
CCn1ccnc1CN1CCCC1C(=O)Nc1nccs1 (centres undefined)	-5.23
Cc1nc(CN2C[C@@H]3CN(C(=O)c4ccco4)C[C@@H]3C2=O)cs1	-3.99
c1ccc(COC2CCN(c3cncc(-n4cccn4)n3)CC2)cc1	-9.06
COc1nn(C)c2c1CCCN(C(=O)c1cccc3cccnc13)C2	-4.18
Cc1ccc(-c2nc(CN3CCc4cnc(C)nc4C3)no2)cc1	0.992
Cn1nc(-c2ccc(F)cc2)cc1C(=O)NCCn1ccnc1	-10.2
Cc1ccc(-c2nnc(SCC(=O)O)n2-c2ccc(C)cc2)cc1	-15.4
CN(Cc1nnc(C2CC2)n1C)C1CCN(CCc2cnn(C)c2)C1 (centres undefined)	39.7
CC(C)NC(=O)C1CN(C(=O)Nc2ccc(F)cc2)CC12CCOCC2 (centres undefined)	-6.35
O=C(c1ccccn1)N1CCCC2(CCN(c3ccsc3)C2=O)C1 (centres undefined)	12.8
CCc1noc(CN2CCCN(C(C)=O)CC2)n1	-6.42
Cc1ccc(Oc2ncccc2C(=O)O)c(C)c1	-4.94
N#CCc1ccc(NC(=O)N[C@H](CO)Cc2ccc(O)cc2)cc1	-9.07
CC(C)CCN1CCC2(CNS(=O)(=O)c3cccnc3O2)C1 (centres undefined)	26.8
C1CC(CO[C@@H]2CC[C@H]3[C@H]2OCCN3CC2CCOCC2)CCO1	-81.4
Cc1ccc(C(=O)N2C[C@@H]3CN(c4ncccn4)C[C@@H]3C2)cc1	-4.94
Cc1cc2nc(-c3cn(C4CCNCC4)nn3)[nH]c2cc1C	-2.26
CN(C)c1ccc(C(O)CNS(=O)(=O)C2CC2)cc1 (centres undefined)	10.1
Cc1cc(CN2CCN(C(=O)NCc3ccco3)CC2)no1	18.9
O=C(NCc1cn2cccnc2n1)C1CC(=O)N(Cc2ccccn2)C1 (centres undefined)	-6.73
COCCN1CCC(c2nc3c([nH]2)CC(C)(C)CNC3=O)C1 (centres undefined)	10.3

SMILES	cytotoxicity at 70.5 h [%]
O=C(NCc1cccnc1)c1cn(CCc2ccccc2)nn1	14
NC(=O)CNC(=O)c1cc(Cn2cnc3ccccc32)[nH]n1	-5.83
CS(=O)(=O)N1CCCc2sc(C(=O)NC3CC3)nc21	-3.24
CN(CCO)Cc1nnc(C2CCN(C(=O)CN3CCCC3)CC2)n1C	-0.947
COc1cc(C(=O)NCCS(=O)(=O)N(C)C)c2ccccc2n1	1.37
Cc1ccc(SC2CCCC2)c(C(=O)NCCO)c1	-23.4
CC(O)CN1CCC(CN(C)CCC(=O)NC2CCCCC2)CC1 (centres undefined)	14.6
CC(C)[C@H]1CN(CCCO)C[C@@H]1NC(=O)CCS(C)(=O)=O	-3.16
Cc1n[nH]c(C)c1CC(=O)NCCc1ccccc1	14.3
Cc1ccc(C(=O)N2CCc3ccc(=O)n(CCN(C)C)c3CC2)o1	-4.04
CC(c1ccccn1)N(C)Cc1ccc(CCC(C)(C)O)cc1 (centres undefined)	-1.13
NC(=O)c1cccc(CNC(=O)NCCOc2ccc(F)c(F)c2)c1	-2.9
Cc1cc(CNc2ccc(CC(=O)N(C)c3ccccc3)cc2)no1	0.0494
c1cnc(NCc2n[nH]c3c2CCN(Cc2cccnc2)C3)nc1	-12.3
O=C(c1cc(-n2cnnn2)ccc1Cl)N1CCC2(CC1)OCCO2	-7.22
CN(C)C(=O)c1cc(-c2ccccc2)[nH]n1	-6.41
CCOc1ccc(N(CCC#N)C(=O)c2ccc(OC)nc2)cc1	1.85
Cc1nc(N(C)C)nc(C)c1NS(=O)(=O)c1ccc(OC(F)(F)F)cc1	-6.13
COc1ccnc(NC(=O)CSCc2cccnc2)c1	-1.54
CS(=O)(=O)N1CCCC12CCCN(S(=O)(=O)c1ccc(F)cc1)C2 (centres undefined)	-8.04
CN(CC(O)C(F)(F)F)C(=O)Nc1cccc(N2CCCC2)c1 (centres undefined)	-3.73
CCC(Nc1ncnc2sc(C(=O)O)c(C)c12)c1ccnn1C (centres undefined)	-12.8
CCc1nnc(Nc2cccc(C3CCN(C)CC3)n2)s1	35

SMILES	cytotoxicity at 70.5 h [%]
O=C(c1cccc2[nH]ccc12)N1CCC2(CCOC2)C1 (centres undefined)	2.34
O=C1CC2(CCCCC2)CC(=O)N1CC(O)COCc1ccc(Cl)cc1 (centres undefined)	-6.34
Cc1nc(-c2ccccc2)cc2nn(CC(N)=O)c(=O)n12	-2.53
O=C1NCCCc2[nH]c(Cc3ccc(F)cc3)nc21	-6
O=c1cccnn1CC1CN(c2ncc(F)cn2)Cc2nccn2C1 (centres undefined)	-10.5
O[C@@H]1C[C@@](CNCc2ccccn2)(COc2cccnc2)C[C@@H]1O	-8.64
CCS(=O)(=O)N1CCc2cc(C(=O)NC)c(NCC3CC3)nc2CC1	-4.13
COCCC1(CNC(=O)NCC2CCC2)CCC1	-0.0221
CCn1c(CN(C)C)nnc1C1CCN(Cc2ccccc2)CC1	-10.3
Cc1ccc(Cl)cc1NS(=O)(=O)c1cc(C(N)=O)n(C)c1	-0.833
Cc1ccn2ncc(C(=O)N3CCCC(c4cc(C)[nH]n4)C3)c2n1 (centres undefined)	-7.17
CC(NC(=O)NCCCc1n[nH]c(N)c1C#N)c1cccc(Cl)c1 (centres undefined)	-4.21
Cc1csc(N2CCN(C(=O)C(C)n3cncn3)CC2)n1 (centres undefined)	0.112
CCN(c1ccc(C(=O)NCCCN2CCOCC2)cc1)S(=O)(=O)CC	17.8
COc1c(Br)cc(Br)cc1CNC(C)Cn1cccn1 (centres undefined)	16.4
O=C1CSC(c2ccsc2)c2c(n(C3CCOCC3)[nH]c2=O)N1 (centres undefined)	27.6
CCOc1cc(C)nc(N2CCN(C(C)c3nc(C)no3)CC2)n1 (centres undefined)	-1.64
COc1c(C)cnc(CN(C)C(=O)c2ccccn2)c1C	15.4
CC(C)(C)NC(=O)CN1CCN(C(=O)Nc2ccc(F)cc2F)CC1	9.46
Cc1ccc2[nH]c([C@H]3CCN(CC4CCCCC4)C3)nc2c1	5.77
Cc1ncc(CN2CCOC(c3ccc(-c4cnn(C)c4)cn3)C2)s1 (centres undefined)	-6.63
COCCN1CCCC(CN(C)c2nc3c(s2)c(C)nn3C)C1 (centres undefined)	-4.58
CC(C)COCCC(=O)Nc1cccnc1-n1cncn1	-6.91

SMILES	cytotoxicity at 70.5 h [%]
CC(CNC(=O)NCc1ccc2c(c1)OCO2)CC1(C)OCCO1 (centres undefined)	-5.24
CCC(=O)N1CCN(Cc2cnc(C)nc2)[C@H]2CS(=O)(=O)C[C@H]21	12.9
CC(C)(N)C(=O)N1CCC(c2nccnc2Oc2ccccc2F)CC1	7.72
CN1C(=O)C2(CC(=O)Nc3[nH]ncc32)c2cc(Cl)ccc21 (centres undefined)	-29.3
CC(C)Oc1cccc(CN2CCC(c3n[nH]c4ncccc34)CC2)c1	30.6
COc1ccc(COCC(O)CNC(=O)c2cc(C)oc2C)cc1 (centres undefined)	1.97
CC(C)OCc1ncn2c1CN(Cc1cnn(C)c1)CCC2	0.691
OC(CN1CCCCc2ccccc21)Cn1cccn1 (centres undefined)	1.14
COc1ccc(F)c(CN2CCC(c3cc(O)nc(C)n3)C2)c1 (centres undefined)	32.2
Cc1nnsc1C(=O)NCc1cccnc1N1CCc2ccccc2C1	16.7
O=C(NC1COC2(CCN(Cc3cccs3)CC2)C1)c1ccccn1 (centres undefined)	-2.35
Cc1oncc1C(=O)N1CCOCC2(CCN(c3ccccn3)C2)C1 (centres undefined)	-3.11
CCN(CC)C(=O)C1CCCN1C(=O)c1cccc(-n2cnnn2)c1 (centres undefined)	-4.16
Cc1cc(C)c2ncc(C#N)c(N3CCS(=O)(=O)CC3)c2c1	-7.23
Cc1ncsc1C(=O)NC1CCN(Cc2ccc(C(N)=O)cc2)CC1	1.08
O=C(c1ccoc1)N1CCC(NCc2ccccc2-n2ccnc2)CC1	9.01
O=c1cc(Cn2cncn2)nc2n1CCCN(Cc1ccc(F)cc1)C2	0.75
O=C(NCc1ccco1)Nc1ccc2nc(N3CCOCC3)oc2c1	-2.89
CS(=O)(=O)NCCC(=O)N1CCC(Cc2ccc(CO)cc2)C1 (centres undefined)	1.14
Cn1ccnc1CN1CCC(Cn2cc(-c3ccncc3)nn2)CC1	3.24
COc1ccc(Cl)cc1NCC(=O)N(Cc1ccncc1)C1CC1	15.5
Cc1cn2c(n1)CCC(NC(=O)CCC1CC1)C2 (centres undefined)	-3.09
CC1(C)CN(C(=O)CC2CCS(=O)(=O)CC2)C[C@]1(C)O	-4.68

SMILES	cytotoxicity at 70.5 h [%]
CS(=O)(=O)NCCC(=O)NCc1cccnc1-n1cnc2ccccc21	-12.6
CCn1ncc2c1C(COC)CN(Cc1ccsc1)C2 (centres undefined)	1.82
COc1cc(-c2noc(C(CC(C)C)N3CCCCC3=O)n2)ccn1 (centres undefined)	-2.9
CC(C)(C)c1cc(=O)n2c(n1)SCC(C(=O)NCc1ccccn1)C2 (centres undefined)	-5.78
Cc1nc(CC(=O)N2CCN(C(C)c3ccccc3F)CC2)cs1 (centres undefined)	-5.6
Cc1cc(-c2nn3c(C(C)C)nnc3s2)on1	-10.1
CC(C)NC(=O)c1cnc(Sc2nccn2C)c(Cl)c1	9.84
CCN1C(=O)C2(CCCCC2)NC1c1cc(C#N)n(C)c1C (centres undefined)	-8.35
CC(=O)N1CCC(N[C@@H]2CO[C@H](CNC(=O)c3cccs3)[C@H]2O)CC1	4.51
Cc1ncncc1C(=O)NCCN1CCC(C)CC1	5.52
Cc1nnc2n1CCN(CCOc1ccc(C(C)(C)C)cc1)C2	-4.66
CC(C)Nc1nc2c(s1)C(=O)CN(CC1CC1)C2	2.03
COc1ccc(N(C)C(=O)C2CN(C)CCO2)cc1F (centres undefined)	-12.3
CCc1ccc(NC(=O)C2OC(c3cccs3)=NN2C(C)=O)cc1 (centres undefined)	40.2
Cc1cc(C(=O)N2CCc3nnc(N)cc3C2)c(C)n1-c1ccccc1	-1.62
CN1CCN(Cc2nnc(C3CCN(C4CCCCC4)CC3)n2C)CC1	-27.4
COc1cc(CC2CC(C(N)=O)=NO2)cc2c1OCO2 (centres undefined)	-7.88
Cc1noc(C2CCCN(C(=O)c3ccc(Cl)cc3F)C2)n1 (centres undefined)	-7.02
Cc1cc(CN(C)CC2CC(C3CCCCC3)=NO2)no1 (centres undefined)	0.975
O=C1C[C@H]2CC[C@@H](CN1)N2C1CCOCC1	-1.49
COc1cccc(C2(NC(=O)CCNC(C)=O)CC2)c1	5.65
Cc1csc2ncc(-c3ccnc(NC4CCOCC4)n3)c(=O)n12	0.723
